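Each compound was tested at five concentrations against cells in 96-well plates for 48 hours. TGI is the concentration that stops growth completely.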
What was measured:
Assay in all cases: DTP human tumour cell line panel, 48 h
[1] = tested on: K-562 leukemia
[2] = tested on: HL-60(TB) leukemia
[3] = tested on: SN12C renal
[4] = tested on: TK-10 renal
[5] = tested on: NCI-H522 lung
[6] = tested on: SW-620 colon
[7] = tested on: NCI-H23 lung
[8] = tested on: SF-539 CNS
[9] = tested on: MDA-MB-231 breast
[10] = tested on: SK-MEL-28 melanoma
[11] = tested on: RPMI-8226 leukemia
[12] = tested on: IGROV1 ovarian
[13] = tested on: DU-145 prostate
[14] = tested on: HOP-92 NSCLC
[15] = tested on: MOLT-4 leukemia
[16] = tested on: 786-0 renal
[17] = tested on: EKVX NSCLC
[18] = tested on: HCT-15 colon
[19] = tested on: HS 578T breast
[20] = tested on: HT29 colon
[21] = tested on: MDA-N
[22] = tested on: MALME-3M melanoma
[23] = tested on: NCI-H226 lung
[24] = tested on: SK-MEL-2 melanoma
[25] = tested on: OVCAR-5 ovarian
[26] = tested on: CAKI-1 renal
[27] = tested on: UACC-257 melanoma
[28] = tested on: MDA-MB-435
[29] = tested on: UACC-62 melanoma
[30] = tested on: SNB-75 CNS
[31] = tested on: COLO 205 colon
[32] = tested on: M14 melanoma
[33] = tested on: KM12 colon
[34] = tested on: T-47D breast
[35] = tested on: SR leukemia
[36] = tested on: U251 CNS
[37] = tested on: PC-3 prostate
[38] = tested on: NCI/ADR-RES ovarian
[39] = tested on: UO-31 renal
[40] = tested on: MCF7 breast
[41] = tested on: BT-549 breast
[42] = tested on: OVCAR-3 ovarian
[43] = tested on: OVCAR-4 ovarian
[44] = tested on: OVCAR-8 ovarian
[45] = tested on: LOX IMVI melanoma
[46] = tested on: SK-OV-3 ovarian
[47] = tested on: HOP-62 NSCLC
[48] = tested on: HCT-116 colon
[49] = tested on: ACHN renal
[50] = tested on: CCRF-CEM leukemia
[51] = tested on: SK-MEL-5 melanoma
[52] = tested on: SF-295 CNS
[53] = tested on: A549 NSCLC
[54] = tested on: HCC-2998 colon
[55] = tested on: SNB-19 CNS
[56] = tested on: SF-268 CNS
[57] = tested on: NCI-H460 lung
[58] = tested on: RXF 393 renal

COC1CC(OC2C(C)OC(OC3C(C)OC(OC4C(C)OC(O[C@H]5CC[C@@]6(C)C(=CC[C@]7(O)[C@@H]6C[C@@H](OC(=O)/C=C/c6ccccc6)[C@@]6(C)[C@]7(O)CC[C@@]6(O)C(C)=O)C5)CC4OC)CC3OC)CC2OC)OC(C)C1O (stereo partly drawn)
TGI [1]: > 12.5 µM | TGI [2]: > 12.5 µM | TGI [3]: > 12.5 µM | TGI [4]: > 12.5 µM | TGI [5]: > 12.5 µM | TGI [6]: > 12.5 µM | TGI [7]: > 12.5 µM | TGI [8]: > 12.5 µM | TGI [9]: > 12.5 µM | TGI [10]: > 12.5 µM | TGI [11]: > 12.5 µM | TGI [12]: > 12.5 µM | TGI [13]: > 12.5 µM | TGI [14]: > 12.5 µM | TGI [15]: > 12.5 µM | TGI [16]: > 12.5 µM | TGI [17]: > 12.5 µM | TGI [18]: > 12.5 µM | TGI [19]: > 12.5 µM | TGI [20]: > 12.5 µM | TGI [21]: > 12.5 µM | TGI [22]: > 12.5 µM | TGI [23]: > 12.5 µM | TGI [24]: > 12.5 µM | TGI [25]: > 12.5 µM | TGI [26]: > 12.5 µM | TGI [27]: > 12.5 µM | TGI [28]: > 12.5 µM | TGI [29]: > 12.5 µM | TGI [30]: > 12.5 µM | TGI [31]: > 12.5 µM | TGI [32]: > 12.5 µM | TGI [33]: > 12.5 µM | TGI [34]: > 12.5 µM | TGI [35]: > 12.5 µM | TGI [36]: > 12.5 µM | TGI [37]: > 12.5 µM | TGI [38]: > 12.5 µM | TGI [39]: > 12.5 µM | TGI [40]: > 12.5 µM | TGI [41]: > 12.5 µM | TGI [42]: > 12.5 µM | TGI [43]: > 12.5 µM | TGI [44]: > 12.5 µM | TGI [45]: > 12.5 µM | TGI [46]: > 12.5 µM | TGI [47]: > 12.5 µM | TGI [48]: > 12.5 µM | TGI [49]: > 12.5 µM | TGI [50]: > 12.5 µM | TGI [51]: > 12.5 µM | TGI [52]: > 12.5 µM | TGI [53]: > 12.5 µM | TGI [54]: > 12.5 µM | TGI [55]: > 12.5 µM | TGI [56]: > 12.5 µM

O=C(OCCN=C1c2ccccc2CCc2ccccc21)c1ccccc1
TGI [1]: > 100 µM | TGI [2]: > 100 µM | TGI [3]: > 100 µM | TGI [4]: > 100 µM | TGI [6]: > 100 µM | TGI [7]: > 100 µM | TGI [8]: > 100 µM | TGI [9]: > 100 µM | TGI [10]: > 100 µM | TGI [57]: > 100 µM | TGI [11]: 34.2 µM | TGI [12]: > 100 µM | TGI [13]: > 100 µM | TGI [14]: > 100 µM | TGI [15]: 39 µM | TGI [16]: > 100 µM | TGI [17]: > 100 µM | TGI [18]: > 100 µM | TGI [19]: > 100 µM | TGI [20]: > 100 µM | TGI [21]: > 100 µM | TGI [22]: > 100 µM | TGI [23]: > 100 µM | TGI [24]: > 100 µM | TGI [25]: > 100 µM | TGI [26]: > 100 µM | TGI [27]: > 100 µM | TGI [28]: > 100 µM | TGI [29]: > 100 µM | TGI [30]: > 100 µM | TGI [31]: > 100 µM | TGI [32]: > 100 µM | TGI [33]: > 100 µM | TGI [34]: > 100 µM | TGI [35]: 50.2 µM | TGI [36]: > 100 µM | TGI [37]: > 100 µM | TGI [38]: > 100 µM | TGI [39]: > 100 µM | TGI [40]: > 100 µM | TGI [41]: > 100 µM | TGI [42]: > 100 µM | TGI [43]: > 100 µM | TGI [44]: > 100 µM | TGI [45]: > 100 µM | TGI [46]: > 100 µM | TGI [47]: > 100 µM | TGI [48]: > 100 µM | TGI [49]: > 100 µM | TGI [50]: > 100 µM | TGI [51]: > 100 µM | TGI [52]: > 100 µM | TGI [58]: > 100 µM | TGI [53]: > 100 µM | TGI [54]: > 100 µM | TGI [55]: > 100 µM | TGI [56]: > 100 µM
